Literature values, collected in patent US5641787A, “Indole derivatives as dopamine D4 antagonists” (Merck, Sharp & Dohme Ltd., priority 1995, dated 1997).

Details: stated in Recl. Trav. Chim. Pays-Bas, 1954, 73, 629

c1ccc2c(c1)CCN(Cc1c[nH]c3ccccc13)C2 [3-(1,2,3,4-tetrahydroisoquinolin-2-yl)methyl-1H-indole]
oxytocic activity: oxytocic activity
